Test results as given in patent US20260116868A1 (Arcus Biosciences, Inc., priority 2023, published 2026).

These compounds were tested against T1, Cbl-b (Homo sapiens, UniProt Q13191) (assay: Cbl-b probe displacement HTRF binding assay). Conditions: 0.4 nM Cbl-b, 150 nM BODIPY probe.
T1 construct: biotin (biotinylated protein)
Description: The affinity with which compounds of the present disclosure bind to Cbl-b was assessed using probe displacement homologous time resolved fluorescence (HTRF) assays. The assays used a BODIPY™ conjugated probe (Example 54 from WO 2020264398) and biotinylated Cbl-b. The assays were performed in assay buffer consisting of 20 mM Hepes, 150 mM NaCl, 0.01% Triton X-100, 0.5 mM TCEP, 0.01% BSA. On the day of the assay, a 20 point, 1:2 master serial dilution of each compound was prepared in DMSO to span a final concentration range of […] to 0 nM. Two hundred nanoliters of diluted compound was added to each well of a 384-well plate. Fifteen microliters of biotinylated- Cbl-b resuspended in assay buffer were added to each well and the plate incubated for 60 minutes at room temperature prior to addition of 5 μL of BODIPY™ probe in assay buffer. Final assay conditions included 0.4 nM of Cbl-b and 150 nM of BODIPY™ probe. After a further 15 minutes of incubation at room temperature, 5 μl of Streptavidin-Terbium cryptate reagent at 5-fold final concentration was added to each well of the 384-well plate. Binding of a probe to Cbl-b results in an increase of HTRF signal. HTRF signal was measured by Envision plate reader, while competition of a compound of the present disclosure with probe results in a decrease of signal. Percentage maximum activity in each test well was calculated based on DMSO (maximum activity, 0% displacement) and no protein control wells (baseline activity, 100% displacement). Binding affinity was determined from a dose response curve fitted using a standard four parameter fit equation. See Table 7 for data for compounds (Cbl-b Binding (IC50)).

T1 sequence (Q13191 whole entry, species assumed): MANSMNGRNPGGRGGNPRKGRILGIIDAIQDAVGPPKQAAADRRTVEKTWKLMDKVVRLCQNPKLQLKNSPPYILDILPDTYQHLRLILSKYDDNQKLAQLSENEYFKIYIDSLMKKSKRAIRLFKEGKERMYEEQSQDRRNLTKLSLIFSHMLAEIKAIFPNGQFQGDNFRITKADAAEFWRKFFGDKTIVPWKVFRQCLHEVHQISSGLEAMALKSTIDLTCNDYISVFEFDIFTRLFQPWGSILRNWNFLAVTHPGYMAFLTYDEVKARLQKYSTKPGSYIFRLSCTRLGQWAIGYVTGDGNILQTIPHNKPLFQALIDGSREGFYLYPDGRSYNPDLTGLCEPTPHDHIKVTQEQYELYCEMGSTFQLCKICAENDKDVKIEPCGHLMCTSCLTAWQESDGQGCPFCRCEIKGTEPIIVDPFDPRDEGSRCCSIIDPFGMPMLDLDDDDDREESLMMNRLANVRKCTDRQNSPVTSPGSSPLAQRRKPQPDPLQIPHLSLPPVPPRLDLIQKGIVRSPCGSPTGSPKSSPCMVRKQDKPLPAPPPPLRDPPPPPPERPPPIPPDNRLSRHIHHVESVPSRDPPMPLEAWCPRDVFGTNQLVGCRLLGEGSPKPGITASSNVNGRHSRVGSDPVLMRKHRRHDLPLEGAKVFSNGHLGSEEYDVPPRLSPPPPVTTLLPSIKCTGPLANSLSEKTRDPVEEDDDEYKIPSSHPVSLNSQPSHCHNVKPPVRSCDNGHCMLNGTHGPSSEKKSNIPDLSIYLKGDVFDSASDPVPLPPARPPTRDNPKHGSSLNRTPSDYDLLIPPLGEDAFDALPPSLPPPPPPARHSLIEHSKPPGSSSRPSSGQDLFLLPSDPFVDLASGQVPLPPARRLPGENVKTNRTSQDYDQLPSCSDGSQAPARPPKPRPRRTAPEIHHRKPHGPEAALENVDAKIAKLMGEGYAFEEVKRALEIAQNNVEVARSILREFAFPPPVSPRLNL

With `C=CCn1cc(CN2CCC[C@H](C)C2)cc(C(=O)Nc2cccc(C3(c4nncn4C)CC(C)C3)c2)c1=O` (mixture of isomers) [Example 77, N-[3-[3-methyl-1-(4-methyl-1,2,4-triazol-3-yl)cyclobutyl]phenyl]-5-[[(3S)-3-methylpiperidin-1-yl]methyl]-2-oxo-1-prop-2-enylpyridine-3-carboxamide] as the compound, how does the IC50 read?
The IC50 was under 100 nM.

How did the IC50 turn out when `CC(C)Oc1cc(-c2ccc(C#N)cc2C(=O)N2CC(F)(F)C2)cc(NC(=O)c2cc(CNC(C)C3CC3)cn(C3CC3)c2=O)n1` (stereo in doubt) [Example 140, N-(4-{4-cyano-2-[(3,3-difluoro-1-azetidinyl)carbonyl]phenyl}-6-isopropoxy-2-pyridyl)-1-cyclopropyl-5-{[(S)-1-cyclopropylethylamino]methyl}-2-oxo-1,2-dihydronicotinamide] was run?
Its IC50 is under 100 nM.

For `CC(C)Oc1cc(-c2ccc(C#N)cc2C(=O)N2CC(F)(F)C2)cc(NC(=O)c2cc(CNC[C@@H]3CCCO3)cn(C3CC3)c2=O)n1` [Example 96, N-(4-{4-cyano-2-[(3,3-difluoro-1-azetidinyl)carbonyl]phenyl}-6-isopropoxy-2-pyridyl)-5-[({[(S)-tetrahydro-2-furyl]methyl}amino)methyl]-1-cyclopropyl-2-oxo-1,2-dihydronicotinamide], which IC50 is on record?
Its IC50 is under 100 nM.

How did the IC50 turn out when `CC(C)CNCc1cc(C(=O)Nc2cc(-c3ccc(C#N)cc3C(=O)N3CC(F)(F)C3)cc(OC(C)C)n2)c(=O)n(C2CC2)c1` [Example 97, N-(4-{4-cyano-2-[(3,3-difluoro-1-azetidinyl)carbonyl]phenyl}-6-isopropoxy-2-pyridyl)-1-cyclopropyl-5-[(isobutylamino)methyl]-2-oxo-1,2-dihydronicotinamide] was run?
Its IC50 is under 100 nM.

Which IC50 does the source give for `CC(C)Oc1cc(-c2ccc(OC(F)F)cc2C(=O)N2CC(F)(F)C2)cc(NC(=O)c2cc(CN[C@@H](C)C3CCC3)cn(C3CC3)c2=O)n1` [Example 98] here?
Its IC50 is under 100 nM.

How did the IC50 turn out when `CC(C)CNCc1cc(C(=O)Nc2cc(-c3ccc(OC(F)F)cc3C(=O)N3CC(F)(F)C3)cc(OC(C)C)n2)c(=O)n(C2CC2)c1` [Example 99, N-(4-{2-[(3,3-difluoro-1-azetidinyl)carbonyl]-4-difluoromethoxyphenyl}-6-isopropoxy-2-pyridyl)-1-cyclopropyl-5-[(isobutylamino)methyl]-2-oxo-1,2-dihydronicotinamide] was run?
Its IC50 is under 100 nM.

`CC(C)Oc1cc(-c2ccc(C#N)cc2C(=O)N2CC(F)(F)C2)cc(NC(=O)c2cc(CN[C@@H](C)C3CCC3)cn(C)c2=O)n1` [Example 100, N-[4-[4-cyano-2-(3,3-difluoroazetidine-1-carbonyl)phenyl]-6-propan-2-yloxypyridin-2-yl]-5-[[[(1S)-1-cyclobutylethyl]amino]methyl]-1-methyl-2-oxopyridine-3-carboxamide] was tested. Which IC50 did it give?
The IC50 was under 100 nM.

`CC(C)Oc1cc(-c2c(F)cc(C#N)cc2C(=O)N2CC(F)(F)C2)cc(NC(=O)c2cc(CNC[C@@H]3CCCO3)cn(C3CC3)c2=O)n1` [Example 101, N-[4-[4-cyano-2-(3,3-difluoroazetidine-1-carbonyl)-6-fluorophenyl]-6-propan-2-yloxypyridin-2-yl]-1-cyclopropyl-2-oxo-5-[[[(2S)-oxolan-2-yl]methylamino]methyl]pyridine-3-carboxamide] was tested. Which IC50 did it give?
Its IC50 is under 100 nM.

`CCNc1cc(-c2ccc(OC(F)F)cc2C(=O)N2CC(F)C2)cc(NC(=O)c2cc(CN[C@@H](C)C3CCC3)cn(C)c2=O)n1` [Example 103] was tested. Which IC50 did it give?
Its IC50 is under 100 nM.

With `CCOc1cc(-c2ccc(OC(F)F)cc2C(=O)N2CC(F)C2)cc(NC(=O)c2cc(CNC[C@H](C)OC)cn(C3CC3)c2=O)n1` [Example 104, N-(4-{4-Difluoromethoxy-2-[(3-fluoro-1-azetidinyl)carbonyl]phenyl}-6-ethoxy-2-pyridyl)-5-{[(S)-2-methoxypropylamino]methyl}-1-cyclopropyl-2-oxo-1,2-dihydronicotinamide] as the compound, how does the IC50 read?
Its IC50 is under 100 nM.

`Cn1cc(CNC[C@@H]2CCCCO2)cc(C(=O)Nc2cc(-c3ccc(Cl)cc3C(=O)N3CC(F)(F)C3)cc(C3CC3)n2)c1=O` [Example 108, N-[4-[4-chloro-2-(3,3-difluoroazetidine-1-carbonyl)phenyl]-6-cyclopropylpyridin-2-yl]-1-methyl-5-[[[(2S)-oxan-2-yl]methylamino]methyl]-2-oxopyridine-3-carboxamide] was tested. Which IC50 did it give?
Its IC50 is under 100 nM.

For `CC(C)CNCc1cc(C(=O)Nc2cc(-c3ccc(OC(F)F)cc3C(=O)N3CC(F)(F)C3)cc(C3CC3)n2)c(=O)n(C)c1` [Example 109, N-[6-cyclopropyl-4-[2-(3,3-difluoroazetidine-1-carbonyl)-4-(difluoromethoxy)phenyl]pyridin-2-yl]-1-methyl-5-[(2-methylpropylamino)methyl]-2-oxopyridine-3-carboxamide], which IC50 is on record?
Its IC50 is under 100 nM.

Which IC50 does the source give for `Cn1cc(CNC[C@@H]2COCCO2)cc(C(=O)Nc2cc(-c3ccc(OC(F)F)cc3C(=O)N3CC(F)(F)C3)cc(C3CC3)n2)c1=O` [Example 110, N-(6-cyclopropyl-4-{2-[(3,3-difluoro-1-azetidinyl)carbonyl]-4-difluoromethoxyphenyl}-2-pyridyl)-5-[({[(R)-1,4-dioxan-2-yl]methyl}amino)methyl]-1-methyl-2-oxo-1,2-dihydronicotinamide] here?
Its IC50 is under 100 nM.

For `Cn1cc(CNC[C@@H]2CCCCO2)cc(C(=O)Nc2cc(-c3ccc(OC(F)F)cc3C(=O)N3CC(F)(F)C3)cc(C3CC3)n2)c1=O` [Example 111, N-[6-cyclopropyl-4-[2-(3,3-difluoroazetidine-1-carbonyl)-4-(difluoromethoxy)phenyl]pyridin-2-yl]-1-methyl-5-[[[(2S)-oxan-2-yl]methylamino]methyl]-2-oxopyridine-3-carboxamide], which IC50 is on record?
Its IC50 is under 100 nM.

`CC(C)Oc1cc(-c2ccc(OC(F)F)cc2C(=O)N2CC(F)(F)C2)cc(NC(=O)c2cc(CN[C@@H](C)C3CCC3)cn(C)c2=O)n1` [Example 112] was tested. Which IC50 did it give?
The IC50 was under 100 nM.

`CO[C@@H](C)CNCc1cc(C(=O)Nc2cc(-c3ccc(OC(F)F)cc3C(=O)N3CC(F)(F)C3)cc(OC(C)C)n2)c(=O)n(C)c1` [Example 113, N-(4-{2-[(3,3-difluoro-1-azetidinyl)carbonyl]-4-difluoromethoxyphenyl}-6-isopropoxy-2-pyridyl)-5-{[(S)-2-methoxypropylamino]methyl}-1-methyl-2-oxo-1,2-dihydronicotinamide] was tested. Which IC50 did it give?
The IC50 was under 100 nM.

With `CC(C)Oc1cc(-c2ccc(OC(F)F)cc2C(=O)N2CC(F)(F)C2)cc(NC(=O)c2cc(CN[C@@H](C)C(C)C)cn(C)c2=O)n1` [Example 114] as the compound, how does the IC50 read?
The IC50 was under 100 nM.

Which IC50 does the source give for `CC(C)Oc1cc(-c2ccc(OC(F)F)cc2C(=O)N2CC(F)(F)C2)cc(NC(=O)c2cc(CN[C@@H](C)C3CC3)cn(C)c2=O)n1` [Example 115, N-(4-{2-[(3,3-difluoro-1-azetidinyl)carbonyl]-4-difluoromethoxyphenyl}-6-isopropoxy-2-pyridyl)-5-{[(S)-1-cyclopropylethylamino]methyl}-1-methyl-2-oxo-1,2-dihydronicotinamide] here?
The IC50 was under 100 nM.

With `CO[C@@H](C)[C@H](C)NCc1cc(C(=O)Nc2cc(-c3ccc(OC(F)F)cc3C(=O)N3CC(F)(F)C3)cc(OC(C)C)n2)c(=O)n(C)c1` [Example 116, N-(4-{2-[(3,3-difluoro-1-azetidinyl)carbonyl]-4-difluoromethoxyphenyl}-6-isopropoxy-2-pyridyl)-5-{[(1S,2S)-2-methoxy-1-methylpropylamino]methyl}-1-methyl-2-oxo-1,2-dihydronicotinamide] as the compound, how does the IC50 read?
The IC50 was under 100 nM.

`CO[C@@H](C)CNCc1cc(C(=O)Nc2cc(-c3ccc(C#N)cc3C(=O)N3CC(F)(F)C3)cc(OC(C)C)n2)c(=O)n(C)c1` [Example 117, N-(4-{4-cyano-2-[(3,3-difluoro-1-azetidinyl)carbonyl]phenyl}-6-isopropoxy-2-pyridyl)-5-{[(S)-2-methoxypropylamino]methyl}-1-methyl-2-oxo-1,2-dihydronicotinamide] was tested. Which IC50 did it give?
The IC50 was under 100 nM.

For `CCOc1cc(-c2c(F)cc(C#N)cc2C(=O)N2CC(F)(F)C2)cc(NC(=O)c2cc(CNC[C@@H]3CCCO3)cn(C)c2=O)n1` [Example 118, N-[4-[4-cyano-2-(3,3-difluoroazetidine-1-carbonyl)-6-fluorophenyl]-6-ethoxypyridin-2-yl]-1-methyl-2-oxo-5-[[[(2S)-oxolan-2-yl]methylamino]methyl]pyridine-3-carboxamide], which IC50 is on record?
Its IC50 is under 100 nM.

How did the IC50 turn out when `CCOc1cc(-c2c(F)cc(C#N)cc2C(=O)N2CC(F)(F)C2)cc(NC(=O)c2cc(CN[C@@H](C)C3CC3)cn(C)c2=O)n1` [Example 119, N-[4-[4-cyano-2-(3,3-difluoroazetidine-1-carbonyl)-6-fluorophenyl]-6-ethoxypyridin-2-yl]-5-[[[(1S)-1-cyclopropylethyl]amino]methyl]-1-methyl-2-oxopyridine-3-carboxamide] was run?
Its IC50 is under 100 nM.

With `CCOc1cc(-c2c(F)cc(C#N)cc2C(=O)N2CC(F)(F)C2)cc(NC(=O)c2cc(CNC[C@H](C)OC)cn(C)c2=O)n1` [Example 120, N-[4-[4-cyano-2-(3,3-difluoroazetidine-1-carbonyl)-6-fluorophenyl]-6-ethoxypyridin-2-yl]-5-[[[(2S)-2-methoxypropyl]amino]methyl]-1-methyl-2-oxopyridine-3-carboxamide] as the compound, how does the IC50 read?
Its IC50 is under 100 nM.
